According to PubChem BioAssay AID1241 (SRMLSC, 2008):

Experiment: compounds inducing NF-kB luciferase expression – cell-based, SH-SY5Y, dose response (AID 1241)
Details: SH-SY5Y NF-kB promoter luciferase reporter, fold induction

In order of rising EC50:
1. CCOC(=O)CSc1nc2cc(OC)ccc2cc1C#N  144 nM
2. CCCCCCCOc1ccc(OC(=O)c2cccnc2)cc1  161 nM
3. COc1ccc2[nH]c3c(c2c1)CCn1c-3nc2ccccc2c1=O  185 nM
4. CN(C)c1ccc(C(=O)c2ccc(N(C)C)c3ccccc23)cc1  221 nM
5. CCCCc1ccc(NC(=O)c2cnccn2)cc1  250 nM
6. Cc1ccc(N/C=C/C(=O)c2cccs2)cc1C  270 nM
7. COc1ccc(-c2cn3cc(C)ccc3n2)cc1Br  327 nM
8. Cc1nnc(SCC(=O)Nc2ccc(-c3nc4ccccc4s3)cc2)s1  328 nM
9. c1ccc2c(c1)nnn1c3ccccc3nc21  346 nM
10. O=C(Nc1cccc(O)c1)c1noc2c1CCc1ccccc1-2  426 nM
11. Fc1ccc(-c2cnn3c(-c4cccs4)ccnc23)cc1  532 nM
12. Cc1ccnc(NC(=O)Nc2cccc(F)c2)c1  608 nM
13. Oc1ccccc1-c1cc(-c2ccc3c(c2)OCCO3)n[nH]1  639 nM
14. c1ccc(Nc2nc(-c3cccs3)cs2)nc1  667 nM
15. CC(=O)Nc1cccc(-c2csc(Nc3ccc(C)cn3)n2)c1  702 nM
16. CC(C)CC(=O)N/C(N)=N/c1nc2ccccc2s1  762 nM
17. Cc1ccc2nc(-c3sc4nc(C)ccc4c3N)[nH]c2c1  765 nM
18. CCOC(=O)c1sc(=NC(=O)c2cccs2)n(C)c1C  778 nM
19. Clc1ccc(-c2cn3c(n2)-c2ccccc2C3)cc1Cl  861 nM
20. c1ccc2sc(-c3ccc4c(c3)OCO4)nc2c1  868 nM
21. Nc1nc(-c2ccccc2)nc2sc3c(c12)CCCC3  873 nM
22. COc1ccc(NC(=O)c2cc3ccccn3n2)cc1  958 nM
23. O=C(/C=C\Nc1ccc2c(c1)OCO2)c1ccc2c(c1)OCO2  996 nM
24. Cc1csc(NC(=O)c2cc3c(s2)CCC3)n1  1050 nM
25. Cc1ccc(C(=O)Nc2ccc3nccnc3c2)cc1  1110 nM
26. O=C(/C=C/c1ccccc1Cl)Nc1cccc(O)c1  1120 nM
27. O=C(Nc1ccc2c(c1)OCCO2)c1cc2ccccc2o1  1120 nM
28. COc1ccc2cc(-c3cc(C(=O)O)c4ccccc4n3)ccc2c1  1140 nM
29. CCOc1ccc2nc(-c3ccccc3)[nH]c2c1  1140 nM
30. CSC(=S)N/N=C(\C)c1ccccc1  1170 nM
31. COc1ccccc1/C=C/C(=O)Nc1ccc2c(c1)OCCO2  1190 nM
32. Clc1cccc(Cl)c1/C=C/c1nc2ccccc2[nH]1  1190 nM
33. O=C(Nc1ccc2c(c1)OCO2)c1ccc2c(c1)OCO2  1230 nM
34. Fc1ccccc1OCCSc1nnnn1-c1ccccc1  1240 nM
35. Oc1ccccc1-c1cc(-c2ccccc2Cl)[nH]n1  1240 nM
36. CNC(=O)Oc1cccc(-c2cn3cc(Cl)ccc3n2)c1  1260 nM
37. O=C(/C=C/c1ccco1)Nc1ccc2c(c1)OCCO2  1280 nM
38. COc1cccc(C(=O)/C=C/Nc2cccc(O)c2)c1  1290 nM
39. COc1ccc2nc(-c3ccccc3)[nH]c2c1  1320 nM
40. O=C(NCCSc1ccccc1)c1ccc(Br)cc1  1340 nM
41. COc1ccc(C(=O)Nc2ccc3c(c2)OCCO3)cc1  1350 nM
42. Cn1cc([N+](=O)[O-])c(C(=O)Nc2ccc(-c3nc4ccccc4[nH]3)cc2)n1  1410 nM
43. O=C(Nc1ccc(N2CCCC2)c(Cl)c1)c1cccs1  1510 nM
44. CC(C(=O)O)c1ccc(N2Cc3ccccc3C2=O)cc1 (stereo not given)  1520 nM
45. Cc1nc(Sc2nnnn2C)c2c3c(sc2n1)CCC3  1590 nM
46. Cn1cccc1/C=C1\CCc2ccccc2C1=O  1630 nM
47. COc1ccc(-c2csc(Nc3ncccc3C)n2)cc1  1650 nM
48. COC(=O)c1ccc(NC(=O)C(=O)c2cccn2C)cc1  1710 nM
49. O=C(c1cnn(-c2ccc(Cl)cc2)c1)c1ccccc1O  1720 nM
50. C=CCNc1ncnc2c1cnn2-c1ccc(Cl)cc1  1820 nM
51. Cc1cc(C)n2cc(COc3ccc4ccccc4c3)nc2n1  1830 nM
52. CCOc1ccc(OCc2cccc(C(=O)O)c2)cc1  1850 nM
53. Clc1ccccc1Nc1nc(-c2cccnc2)cs1  1860 nM
54. COc1ccc2nc(SCC(C)=O)c(C#N)cc2c1  1900 nM
55. Cc1ccc(S/C=C\C(=O)c2ccccc2)cc1  1960 nM
56. CN(C)c1ccc(C(=O)/C=C/c2ccco2)cc1  1960 nM
57. Clc1c(CSc2nc3ccccc3o2)nc2ccccn12  1960 nM
58. COC(=O)c1cccc(NC(=O)c2onc3c2CCCC3)c1  2040 nM
59. COc1ccc2c(c1)CC/C2=N\OC(=O)c1cccc(C)c1  2060 nM
60. Brc1ccccc1-c1nc(-c2ccccc2)no1  2080 nM
61. O=C(Nc1ccc2oc(-c3ccccc3F)nc2c1)c1ncn[nH]1  2110 nM
62. COc1ccc(/C=N/Nc2nc3ccccc3o2)cc1O  2140 nM
63. CC(=Nc1ccc(O)cc1)c1sc2ccccc2c1O  2160 nM
64. CC(=O)Nc1cccc(-c2csc(Nc3ccc(Cl)cn3)n2)c1  2200 nM
65. O=C(Nc1ccc(Cl)cc1)C1=Cc2ccccc2OC1  2230 nM
66. Cc1ccc(-c2cn3cccc(C)c3n2)cc1  2300 nM
67. O=S(=O)(c1ccc(Cl)cc1)c1snnc1-c1ccccc1  2330 nM
68. Nc1nc(-c2ccc(-c3ccccc3)cc2)cs1  2420 nM
69. CC(C)Oc1cccc(C(=O)Nc2ccc(Br)cc2F)c1  2460 nM
70. c1ccc2oc(-c3csc(NCC4CCCO4)n3)cc2c1 (stereo not given)  2540 nM
71. CCc1ccc(C(=O)COC(=O)c2n[nH]c3ccccc23)cc1  2540 nM
72. N#C/C(=N/Nc1ccc([N+](=O)[O-])cc1)C(=N)N1CCCCC1  2610 nM
73. Cc1ccc(C2=NN(S(C)(=O)=O)C(c3ccc4c(c3)OCO4)C2)cc1 (stereo not given)  2650 nM
74. CCOC(=O)c1sc(NC(=O)Nc2ccc(F)cc2)nc1C  2670 nM
75. Cc1cc(C=C2C(=O)c3ccccc3C2=O)c(C)n1C  2790 nM
76. CC(=O)Oc1ccc(Oc2ccc(-c3noc(C)n3)cc2)cc1  2840 nM
77. CCOC(=O)c1nn(-c2ccc(Br)cc2)cc1C(=O)c1cccc2ccccc12  3000 nM
78. Cc1ccsc1C(=O)Nc1ccc2c(c1)OCCO2  3080 nM
79. CC(C)(C)c1ccc2c(c1)C(=O)c1ccccc1C2=O  3190 nM
80. O=c1oc2ccccc2cc1-c1csc(Nc2ccc(O)cc2)n1  3230 nM
81. CCCCc1ccc(-c2ccc(C)cc2O)nc1  3250 nM
82. CCS/C(N)=N/N=C/c1cc(C)ccc1O  3310 nM
83. Cc1ccc(NCc2nc3ccccc3n2C)cc1  3360 nM
84. CN1CCN(Cn2cc(/C=C/C(=O)c3ccccc3)c3ccccc32)CC1  3610 nM
85. Cc1ccc2nc(-c3ccc(NS(=O)(=O)c4ccc(F)c(F)c4)cc3)sc2c1  3620 nM
86. Nc1ccc2nc(SCc3cccc(F)c3)sc2c1  3680 nM
87. Fc1c(F)c(F)c(N/N=C/c2c[nH]c3ccccc23)c(F)c1F  3860 nM
88. Cc1ccc(NC(=O)COc2ccccc2C=O)cc1Cl  3880 nM
89. Cc1ccccc1OCC(=O)Nc1cccc(C(=O)O)c1  4050 nM
90. CC(/C=N/Nc1nc2ccccc2[nH]1)=C\c1ccccc1  4160 nM
91. COc1cccc(NC(=O)C(=S)NC2CCCCC2)c1  4220 nM
92. CCN(CC)c1ccc(/C=N/NC(=O)c2ccco2)cc1  4280 nM
93. CC(=O)c1ccc(NC(=O)/C(Cl)=C/c2ccccc2)cc1  4310 nM
94. CC(C)c1ccc(/C=C/C(=O)Nc2nncs2)cc1  4500 nM
95. Cc1nnc(SCc2cnc(-c3ccc(C(C)C)cc3)s2)n1C  4570 nM
96. Oc1ccc(CN2CCN(Cc3ccccc3)CC2)c2cccnc12  5240 nM
97. Cc1ccc(NC(=O)N2CCC(c3ccccc3)C2)cc1C (stereo not given)  5300 nM
98. COc1cccc(C(=O)/C=C/Nc2cc(C)ccc2O)c1  5510 nM
99. Oc1c(-c2cc(-c3ccco3)[nH]n2)ccc2ccccc12  5560 nM
100. COC(=O)CSc1nc(-c2cccs2)ccc1C#N  5620 nM
101. COc1cc2c(cc1NC(=O)C1CCCO1)oc1ccccc12 (stereo not given)  5780 nM
102. Cc1ccc(/C=C2\OC(=O)c3ccccc32)cc1  6030 nM
103. Cc1ccccc1Nc1nc(N)nc(CSc2ccc(F)cc2)n1  6450 nM
104. COC(=O)CSc1nc2cc(C)ccc2cc1C#N  6530 nM
105. CCOC(=O)CSc1nc(-c2ccncc2)ccc1C#N  6770 nM
106. Clc1ccc(CSc2nc3ccncc3[nH]2)cc1  6940 nM
107. O=C(Nc1ccc2sc3ccccc3c(=O)c2c1)c1ccccc1Cl  7040 nM
108. CCOC(=O)c1cnc2c(-c3ccccc3)cnn2c1C  7520 nM
109. COc1cc(/C=C(/C(=O)c2cccs2)c2nc3ccccc3[nH]2)cc(OC)c1O  7670 nM
110. CC(C)c1ccc(NC(=O)NC2CCCCC2)cc1  8150 nM
111. CC(C)CC(=O)Nc1ccc(-c2cn3ccsc3n2)cc1  8510 nM
112. CN(C)S(=O)(=O)Oc1cccc(C(=O)Nc2ccc(Cl)cc2)c1  8780 nM
113. COc1cccc(NC(=O)Nc2ccc3c(c2)nc(C)n3C)c1  9300 nM
114. Cc1ccc(OCC(=O)Nc2ccccc2[N+](=O)[O-])c(Br)c1  9490 nM
115. Cc1ccc(NC(=O)c2cc3c(s2)CCCC3)cc1  10400 nM
116. Cc1nn(-c2ccccc2)c(Cl)c1/C=N/Nc1ccc(Cl)c(C(=O)O)c1  11300 nM
117. Cc1ccc(-c2cnc3c(Cl)c(C)nn3c2)cc1  11500 nM
118. COc1ccc(-c2cn3ccsc3n2)cc1  12500 nM
119. COc1cccc(/C=C/C(=O)c2ccc[nH]2)c1  14900 nM
120. O=C(Nc1ccn(Cc2ccccc2)n1)c1cccc(F)c1  15100 nM
121. CN(C)C(=S)Nc1nc2ccccc2s1  15100 nM
122. O=C(COc1ccccc1Cl)Nc1ccc(Cl)cn1  15400 nM
123. COc1cc(SC)ccc1C(=O)NCCOc1ccccc1Cl  15500 nM
124. COc1ccc(-c2cc(-c3cc(C)ccc3O)[nH]n2)cc1  16000 nM
125. CCCCc1ccc(-c2ccc(Br)cc2)nc1  16300 nM
126. O=C(Nc1ccccn1)c1ccc2ccccc2n1  17200 nM
127. Cc1ccc(C(=O)Nc2ccc(Cl)cn2)cc1  17300 nM
128. O=C(N/N=C/C(Br)=C/c1ccccc1)c1cccs1  18200 nM
129. O=C(Cc1cccs1)Nc1nc2c(s1)CCCC2  20200 nM
130. CCCCOC(=O)Nc1ccc(N2CCCCC2)cc1  20500 nM
131. CC(=O)N(/N=C1\Sc2ccccc2C1=O)c1cccc(C)c1  22300 nM
132. Cc1ccc(S(=O)(=O)/N=C(/NC(=S)Nc2ccccc2)c2ccccc2)cc1  23500 nM
133. CCN(CC)c1ccc(NC(=O)c2ccc(Br)o2)cc1  23900 nM
134. Cn1cccc1C(=O)C(=O)Nc1ccccc1  25100 nM
135. O=C(Nc1ccccc1)Nc1nc2ccccc2s1  27200 nM
